Source: patent US20220056419A1, “IN VITRO MODEL OF LIVER STEATOSIS AND FIBROSING NON-ALCOHOLIC STEATOHEPATITIS” (GENFIT, priority 2018, published 2022)
“Also recorded” adds a separate entry of the source.

Key:
[1] = test system: 3D human liver microtissues; test: Fibrosing NASH model: COL1A1 (pro-collagen I) ELISA in medium 1+medium 2-treated 3D human liver microtissues; type: cell-based; settings: single agent, medium 1+medium 2-treated 3D liver microtissues, FIG. 9A
Excerpt: Cryopreserved primary human hepatocytes (IPHH_11) and cryopreserved primary human non parenchymal cells (NPCs containing endothelial and Kupffer cells) (IPHN_11) were obtained from BioIVT. The cryopreserved human primary hepatic stellate cells (hHSC) were obtained from Innoprot. 3D human liver microtissues were produced with the IPHH_11, the IPHN_11 and the hHSC in a 96-well hanging-drop culture platform (Gravity PLUS™, InSphero AG). After microtissues formation, they were transferred into a microtissue-specific 96-well culture and assay platform (Gravity TRAP™, InSphero AG). Further maintenance and compound treatments were performed in Gravity TRAP™ plates. After tissue formation, the 3D microtissues were maintained in William's E medium (Gibco) supplemented with Insulin (Sigma), Transferrin (Sigma), Selenium (Sigma), Glutamine (Gibco), Dexamethasone (Sigma), HEPES (Sigma), Gentamicin (Gibco) and Amphotericin B (Sigma) at 37° C. in a humidified 5% CO2 cell culture incubator for 4 days. Half of the culture medium was replenished every 3 days.
Hepatic microtissues were treated once with a couple of carbohydrates (final concentration ranging from 1 to 100 mM), a couple of free fatty acids either saturated or unsaturated with a final concentration ranging from 100μM to 1 mM and a source of cholesterol with a concentration ranging from 1 μg/mL to 1 mg/mL (medium 1). After 2 to 5 days, microtissues were treated with a couple of carbohydrates (final concentration ranging from 1 to 100 mM), a couple of free fatty acids either saturated or unsaturated with a final concentration ranging from 100 μM to 1 mM and a source of cholesterol with a concentration ranging from 1 μg/mL to 250 μg/mL, a member of the growth factor superfamily member, a member of the TNFSF with a concentration ranging from 1 ng/mL to 1 μg/mL and a sphingolipid with a concentration ranging from 1 nM to 500 nM (medium 2). This treatment lasts from 2 to 5 days.
The level of Collal, IL-8 and MCP-1 was measured using a Sandwich ELISA, according to manufacturer's instructions provided with “Elisa Pro-Collagen I α1/COLIA1”, (DuoSet ELISA, R&D, catalog N°: DY6220-05), Elisa CXCL8/IL-8 (DuoSet ELISA, R&D, catalog N°: DY208n) and Elisa CCL2/MCP-1 (DuoSet ELISA, R&D, catalog N°: DY279) kits, respectively.
For these experiments, a checkerboard matrix was generated. ELA and component (ii) stocks were serially diluted in DMSO in 2-points series in a row (ELA) and a 3-points series in a column (component (ii)) of a 96-well plate. Subsequently, the 2×3 combination matrix was generated by 1:1 mixing of all single agent concentrations.

3D Huh7 spheroids = test: Steatosis model: AdipoRed lipid quantification in 3D Huh7 spheroids induced with first culture medium; type: cell-based, human; settings: 3D liver microtissue steatosis model, 6 days of treatment with test compound
Protocol: The Huh 7 human hepatocellular carcinoma cell line was seeded in William's E medium (Gibco) with 10% FBS (Gibco) at a density of 3000 cells/well in 384 well plate ULA (Corning). After a few days, spheroids are formed and cells are grown in serum-free culture medium.
William's E medium was supplemented with FFAs (oleate+palmitate, 400 μM total FFA concentration) fructose 15 mM (Sigma) and soluble cholesterol […] (Sigma). Huh7 spheroids were treated for 3 days with this medium with or without a test compound and the treatment was renewed once with or without a test compound.
Steatosis was then measured after 6 days of treatment with or without the test compound.
Lipid Staining and Quantification Intracellular lipid accumulation was quantified using the AdipoRed™ Adipogenesis Assay Reagent (Lonza). Cells were visualized under epifluorescence microscope and then subjected to fluorescence assay quantification at λexc: 485 nm and λem: 572 nm, using plate reader (TECAN).

Compound | inhibition of COL1A1 secretion (collagen release) ([1]; high dose 3 μM) | antisteatotic activity (lipid content, AdipoRed signal) (3D Huh7 spheroids) | inhibition of COL1A1 secretion (collagen release) ([1]; high dose 3 μM, listed as ELA) | inhibition of COL1A1 secretion (collagen release) ([1]; high dose 1 μM)
O=C(c1c2ccccc2cc2ccccc12)N1CCC(N2CCC[C@@H](C(=O)N3CCOCC3)C2)CC1 [CP-640186] | the release of collagen was affected; also recorded: inhibition of COL1A1 secretion | antisteatotic activity |  | 
CSc1ccc(C(=O)/C=C/c2cc(C)c(OC(C)(C)C(=O)O)c(C)c2)cc1 [Elafibranor] | inhibition of COL1A1 secretion |  | the release of collagen was affected | 
COc1ccccc1[C@H](Cn1c(=O)n(C(C)(C)C(=O)O)c(=O)c2c(C)c(-c3ncco3)sc21)OC1CCOCC1 [GS-0976] |  | antisteatotic activity |  | the release of collagen was affected; also recorded: inhibition of COL1A1 secretion
COc1cc(C(=O)N2CCC3(CC2)CC(=O)c2cc(-c4cncc(C(=O)O)c4)ccc2O3)cc2c1c(C)cn2C1CC1 [MK-4074] |  | antisteatotic activity |  | 
